Reference: patent US20050239805A1, “Mixtures of fused pyrimidinones and dinitrophenolic compounds useful for controlling powdery mildews” (priority 2002, published 2005)

Key:
[1] = tested on: Erysiphe graminis f. sp. tritici; assay: Test A: preventive spray on wheat seedlings, wheat powdery mildew disease control; type: in vivo, Erysiphe graminis f. sp. tritici (wheat seedlings); details: average of three replicates
Procedure: The formulation containing a compound of component (1) is dissolved in water to form a stock solution. For testing component (1) individually the stock solution is diluted to the final desired concentration to form a test solution. For example, the compositions of component (1) (e.g., Compound 1 of Index Table A), either alone or in combination, are sprayed at 0.08 or 0.4 ppm to the point of run-off on the test plants, equivalent to a rate of 0.2 or 1 g/ha, respectively.
The commercially available formulation of component (2) (e.g. the Karathane® 19.5% wettable powder formulation of dinocap) is suspended in water to form a stock suspension. For testing component (2) individually the stock suspension is diluted to the final desired concentration to form a test suspension. For example, dinocap, either alone or in combination, is sprayed at 10, 40 or 200 ppm to the point of run-off on the test plants, equivalent to a rate of 25, 100 or 500 g/ha, respectively.
For testing combinations, the stock suspensions of the individual active ingredients prepared as above are then combined in the appropriate ratio, and diluted to the final desired concentration to form a test suspension.
The resulting test suspensions are then used in the following tests. Test suspensions are sprayed to the point of run-off on the test plants at the rates of active ingredient described below. The tests were replicated three times and the results reported as the average of the three replicates.
The test suspension was sprayed to the point of run-off on wheat seedlings. The following day the seedlings were inoculated with a spore dust of Erysiphe graminis f. sp. tritici, (the causal agent of wheat powdery mildew) and incubated in a growth chamber at 20° C. for 8 days, after which disease ratings were made.
Results for Test A are given in Table A. In the table, a rating of 100 indicates 100% disease control and a rating of 0 indicates no disease control (relative to the controls). Columns labeled Observed Disease Control indicates the average of three replications. Columns labeled Expected Disease Control indicate the expected value for each treatment mixture using the Colby equation.

Row | Compound | Observed Disease Control ([1]; application rate 10 ppm, rated after 8 days) [%] | Observed Disease Control ([1]; application rate 40 ppm, rated after 8 days) [%] | Observed Disease Control ([1]; application rate 200 ppm, rated after 8 days) [%] | melting point [°C] | Observed Disease Control ([1]; application rate 0.08 ppm, inoculated day after spray, rated after 8 days at 20° C.) [%] | Observed Disease Control ([1]; application rate 0.4 ppm, rated after 8 days) [%]
1 | 2,6-dinitro-4-octylphenyl crotonates and 2,4-dinitro-6-octylphenyl crotonates [Dinocap] | 45 | 76 | 98 |  |  | 
2 | CCCOc1nc2ccc(I)cc2c(=O)n1CCC [Compound 1, 6-iodo-3-propyl-2-propyloxy-4(3H)-quinazolinone] |  |  |  | 48 to 49 | 80 | 99
